Reference: patent US8153693B2, “Compounds for the selective treatment of the intestinal immuno-inflammatory component of the celiac disease” (Giuliani International Limited, priority 2007, dated 2012)
“Also recorded” adds a separate entry of the source.

Key:
HT-29 STD cells [1] = assay: Cytotoxic effect on epithelial cells seen in the HT-29 experiments; format: cell-based; settings: 30 mM
Experimental: After 24 h of culture, HT-29 STD cells were treated during 24 h with the compounds A, B, C, D and F, at 30 mM. […] The pH of the drug solutions was adjusted to 7.4 with NaOH. Cells were fixed in PFA 4%, permeabilized in PBS containing 0.1% Triton X-100™ at 4° C. and then incubated with goat normal serum and blocking buffer (1% BSA in PBS) to minimize non-specific adsorption of the antibody.
(§1) After 24 h of culture, HT-29 STD cells were treated during 24 h with the compounds A, B, C, D, F, at a concentration of 30 mM. […] The pH of the drug solutions was adjusted to 7.4 with NaOH. Cells undergoing apoptosis were identified by enzymatic labelling of DNA strands using a terminal transferase dUTP nick end labelling assay (TUNEL assay, Roche Diagnostics™, Meylan, France). Counts of at least 500 cells/sample were systematically performed blindly in one experiment. The results were expressed as the mean±SEM of the number of stained cells.

PPARγ [2] = biological target: T1, PPARγ (Homo sapiens, UniProt P37231); assay: PPARγ activation, PPRE luciferase reporter in transfected HT-29 STD cells (Example 5); format: cell-based; settings: 30 mM; for increase of the reporter gene activity: 24 hours, versus non-stimulated cells
T1 construct: HT-29 STD cells were transiently transfected using the Effectene™ transfection reagent; endogenous in cells; host or cells: HT-29 STD (ATCC HTB-38)
T1 sequence (P37231 1-505): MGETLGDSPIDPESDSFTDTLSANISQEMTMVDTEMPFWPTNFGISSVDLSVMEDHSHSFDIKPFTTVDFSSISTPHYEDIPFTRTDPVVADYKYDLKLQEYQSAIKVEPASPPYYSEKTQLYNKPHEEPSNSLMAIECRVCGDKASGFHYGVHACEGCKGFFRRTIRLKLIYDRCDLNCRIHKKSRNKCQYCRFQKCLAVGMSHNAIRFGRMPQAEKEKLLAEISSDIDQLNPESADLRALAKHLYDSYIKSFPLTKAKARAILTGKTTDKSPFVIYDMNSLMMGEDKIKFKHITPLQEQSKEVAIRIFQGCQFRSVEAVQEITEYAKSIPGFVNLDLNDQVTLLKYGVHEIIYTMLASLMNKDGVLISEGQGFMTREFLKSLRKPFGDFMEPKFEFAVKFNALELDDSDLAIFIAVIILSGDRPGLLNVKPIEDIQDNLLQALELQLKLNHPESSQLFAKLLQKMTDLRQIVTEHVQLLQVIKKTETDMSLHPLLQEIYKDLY
Experimental: (§2) The colon cell line HT-29 STD (ATCC HTB-38) was routinely grown in DMEM supplemented with 10% heat-FCS, and antibiotics. Cells were grown in monolayers, incubated at 37° C. in 5% CO2 and 95% relative humidity.
HT-29 STD cells were transiently transfected using the Effectene™ transfection reagent (Qiagen™) according to instructions from the manufacturer. To test PPARγ activation, we performed transfection with 500 ng of a minimal promoter construct containing two copies of PPRE obtained from the cytochrome p450 4A (2×CYP). The renilla luciferase plasmid (0.1 μg/well) was also transfected as an internal control for monitoring transfection efficiency and for normalizing the firefly luciferase activity. Transfected cells were left for 48 hours incubation at 37° C. […] The pH of the drug solutions was adjusted to 7.4 with NaOH. Total cell extracts were prepared using the Passive Lysis Buffer (Promega™, Madison, Wis.). Luciferase activity was assayed in 20 μl of the extract using the Promega™ Dual Luciferase assay system according to the manufacturer's protocol. Transfections were assayed in triplicate in at least three separate experiments. The luciferase activity was expressed as fold of the activity obtained in cells treated with the different molecules divided by luciferase activity from non-stimulated cells.
We investigated PPARγ transcriptional activity by transient transfections of epithelial cells with the renilla luciferase PPRE plasmids. Cells were stimulated with the different molecules during 24 hours.

PPARγ [3] = assay: PPARγ expression by western blot in HT-29 cells; format: cell-based; settings: for induction of PPARγ expression at the protein levels (in words): HT-29 cell line; for mean induction of PPARγ protein levels quantified by western blot: cells treated during 24 hours
Experimental: as §2
The total proteins were obtained by cell homogenization in an extraction buffer consisting of PBS with 2% Triton™, Phenyl Methyl Sulphonyl Fluoride (PMSF) 100 mM and a classical protease inhibitor cocktail. The total proteins were then separated by polyacrylamide gel electrophoresis and electroblotted. Polyvinylidendifluoride (PVDF) membranes were incubated overnight with rabbit polyclonal primary antibody directed against PPARγ (dilution 1/500, TEBU, Le Perray en Yveline, France). β-actin was detected using a rabbit monoclonal primary antibody diluted at 1/10,000 (Sigma). Immunodetection with a secondary peroxidase-conjugated antibody (1/1000, Dako™, Trappes, France) and chemiluminescence was performed according to the manufacturer's protocol (ECL™, Amersham Pharmacia Biotech™, Orsay, France). Optical density values of PPARγ were given for each condition in proportion to the quantity of the internal control β-actin in the same sample.

[4] = Solubility of the molecules in the cell experiments; format: physicochemical; settings: reason for exclusion from the cell experiments
HT-29 STD cells [5] = assay: Detection of apoptosis, TUNEL assay; format: cell-based; settings: 30 mM, 24 h
Experimental: as §1

Compound | cytotoxic effect on epithelial cells (HT-29 STD cells [1]) | induction of PPARγ expression at the protein levels (in words) (PPARγ [3]) | mean induction of PPARγ protein levels quantified by western blot (PPARγ [3]) [fold] | also measured
COc1ccc(N)cc1C(=O)NO [A] | rapid cytotoxic effects; also recorded: direct cytotoxic effects |  |  | 
COc1cc(N)ccc1C(=O)NO [B] | rapid cytotoxic effects; also recorded: direct cytotoxic effects |  |  | 
Nc1cc2c(c(C(=O)O)c1)OCC2 [C] |  | induce PPARγ expression | 2 | PPARγ activation (in words) (PPARγ [2]): induce PPARγ activation; increase of the reporter gene activity (PPARγ [2]): two-fold
CCOc1ccc(N)cc1C(=O)NO [Compound D] | rapid cytotoxic effect; also recorded: direct cytotoxic effects | induce PPARγ expression | 2 | 
CC1(C)OC(=O)c2cc(N)ccc2O1 [E] |  |  |  | solubility [4]: poor solubility
CC(C)Oc1ccc(N)cc1C(=O)O [F] |  | induce PPARγ expression | 2 | PPARγ activation (in words) (PPARγ [2]): induce PPARγ activation; increase of the reporter gene activity (PPARγ [2]): two-fold; apoptosis, share of epithelial cells (TUNEL) (HT-29 STD cells [5]): 80%
CC(C)N(c1ccc(O)c(C(=O)O)c1)C(C)C [G] | rapid cytotoxic effect; also recorded: direct cytotoxic effects |  |  | solubility [4]: poor solubility
